This note sets out measurements from ChEMBL document CHEMBL5223077, “Recent advances on synthesis and biological activities of aurones” (Bioorg Med Chem, 2021).

Converted amounts (≈) assume the structure as drawn.

Assay [1] concerns Mycobacterium tuberculosis. The experiment in a line: Antimycobacterial activity against multidrug resistant Mycobacterium tuberculosis. The format is functional.
For assay [2], the system named is Mycobacterium tuberculosis. The assay is described as follows: Antimycobacterial activity against extensively drug resistant Mycobacterium tuberculosis. The format is functional.

For the molecule `CC(=O)N1/C(=C\c2ccc(-c3ccsc3)cc2)C(=O)c2ccccc21`, the MIC in assay [1] and in assay [2] was 7.55 µM (≈ 2.61 µg/mL) throughout.
